The record followed here is ChEMBL document CHEMBL1201862, “PubChem BioAssay data set” (2004).

Molecules are shown by their SMILES. Activity calls are given as the source filed them. Where only a bound is given, the exact number is not on record here.

For data set [1], the system named is Vero. Put plainly: cells. Format: functional, cell-based. The conditions noted are these: Chlorocebus sabaeus.
In data set [2] the test system is Vero. The experiment in a line: cells. Format: functional. Particulars: Chlorocebus sabaeus.
In data set [3] the target is T1, Short transient receptor potential channel 4 (Mus musculus, UniProt Q9QUQ5).
T1 sequence (Q9QUQ5 whole entry): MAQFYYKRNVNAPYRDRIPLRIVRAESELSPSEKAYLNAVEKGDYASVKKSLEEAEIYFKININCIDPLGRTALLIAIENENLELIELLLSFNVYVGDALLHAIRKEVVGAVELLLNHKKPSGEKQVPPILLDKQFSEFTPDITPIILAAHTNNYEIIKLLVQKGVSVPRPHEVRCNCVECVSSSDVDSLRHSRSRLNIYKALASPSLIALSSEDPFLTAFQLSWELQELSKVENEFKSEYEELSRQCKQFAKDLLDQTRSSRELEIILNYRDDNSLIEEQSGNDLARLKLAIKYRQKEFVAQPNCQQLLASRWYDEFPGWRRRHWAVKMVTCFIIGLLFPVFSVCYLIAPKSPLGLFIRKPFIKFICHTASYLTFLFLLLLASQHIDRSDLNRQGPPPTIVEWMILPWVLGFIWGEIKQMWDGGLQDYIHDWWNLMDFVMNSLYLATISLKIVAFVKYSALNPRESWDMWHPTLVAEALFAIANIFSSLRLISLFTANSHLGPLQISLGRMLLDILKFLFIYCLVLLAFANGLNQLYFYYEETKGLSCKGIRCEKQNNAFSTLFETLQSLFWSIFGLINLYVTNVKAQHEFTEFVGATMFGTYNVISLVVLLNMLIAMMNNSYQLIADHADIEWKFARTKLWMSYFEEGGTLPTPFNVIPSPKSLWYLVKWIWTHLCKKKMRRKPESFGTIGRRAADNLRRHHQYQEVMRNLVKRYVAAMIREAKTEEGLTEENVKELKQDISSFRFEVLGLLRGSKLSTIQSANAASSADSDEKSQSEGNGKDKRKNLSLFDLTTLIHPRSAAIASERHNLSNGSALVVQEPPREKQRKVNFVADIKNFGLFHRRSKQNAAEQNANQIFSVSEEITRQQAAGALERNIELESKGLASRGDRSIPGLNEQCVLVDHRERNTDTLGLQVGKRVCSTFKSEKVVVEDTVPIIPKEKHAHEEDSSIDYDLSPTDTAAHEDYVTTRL
Put plainly: calcium entry via TRPC4 opening agents – cell-based, HEK293 TRPC4/mu-opioid, Fluo-4 calcium, dose response (AID 434937). The class given is functional.

A short description of data set [4]: fluconazole-exposed Candida albicans growth modulators – fluorescence, retest, confirmation (AID 2467). The class given is functional, cell-based.
Data set [5] is described as follows: NIH-3T3 fibroblast cytotoxicity, dose response, cytotoxicity control, cell-based, fluorescence, Alamar Blue, secondary assay (AID 2327).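 Also: NIH-3T3 mouse fibroblasts cultured with fluconazole at 8 µg/mL.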 Format: functional. In general terms: Resazurin is reduced to fluorescent resorufin, in cell work by metabolically active cells.
The target in data set [6] is T2, Mu-type opioid receptor (Homo sapiens, UniProt P35372). The experiment in a line: HTS Image-Based Screen for Agonists of the MOR Receptor. [Related pubchem assays (depositor defined):AID1777, AID1785, AID1786, AID2133]. Format: functional.
T2 sequence (P35372 whole entry): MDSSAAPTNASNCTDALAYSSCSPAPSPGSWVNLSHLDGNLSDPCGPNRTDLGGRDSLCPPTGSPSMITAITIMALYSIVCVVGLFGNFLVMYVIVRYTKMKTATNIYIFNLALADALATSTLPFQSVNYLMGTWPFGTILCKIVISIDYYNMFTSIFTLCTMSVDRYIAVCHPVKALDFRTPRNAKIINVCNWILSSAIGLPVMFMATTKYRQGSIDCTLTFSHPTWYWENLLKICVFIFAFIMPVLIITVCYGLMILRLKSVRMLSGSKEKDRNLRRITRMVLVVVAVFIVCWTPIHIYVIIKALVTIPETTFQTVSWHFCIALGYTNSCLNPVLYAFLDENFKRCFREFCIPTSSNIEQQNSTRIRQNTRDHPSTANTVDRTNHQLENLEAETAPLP
The target of data set [7] is T3, Delta-type opioid receptor (Homo sapiens, UniProt P41143). Put plainly: HTS Image-Based Screen for Antagonists of the DOR Receptor. [Related pubchem assays (depositor defined):AID1777, AID1785, AID1786, AID2133]. The class given is functional.
T3 sequence (P41143 whole entry): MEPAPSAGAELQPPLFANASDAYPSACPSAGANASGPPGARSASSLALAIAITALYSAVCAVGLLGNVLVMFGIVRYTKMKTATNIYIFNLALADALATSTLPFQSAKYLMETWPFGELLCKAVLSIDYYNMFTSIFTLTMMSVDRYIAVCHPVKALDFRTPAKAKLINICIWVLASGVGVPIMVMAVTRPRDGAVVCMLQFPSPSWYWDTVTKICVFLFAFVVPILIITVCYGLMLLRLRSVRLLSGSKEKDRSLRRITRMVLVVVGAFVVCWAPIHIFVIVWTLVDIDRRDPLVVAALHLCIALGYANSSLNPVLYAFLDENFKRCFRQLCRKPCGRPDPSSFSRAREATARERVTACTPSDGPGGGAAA
The target of data set [8] is T4, Kappa-type opioid receptor (Homo sapiens, UniProt P41145). Put plainly: kappa opioid receptor activation potency – imaging, image-based, SAR follow-up (AID 2359). The class given is functional.
T4 sequence (P41145 whole entry): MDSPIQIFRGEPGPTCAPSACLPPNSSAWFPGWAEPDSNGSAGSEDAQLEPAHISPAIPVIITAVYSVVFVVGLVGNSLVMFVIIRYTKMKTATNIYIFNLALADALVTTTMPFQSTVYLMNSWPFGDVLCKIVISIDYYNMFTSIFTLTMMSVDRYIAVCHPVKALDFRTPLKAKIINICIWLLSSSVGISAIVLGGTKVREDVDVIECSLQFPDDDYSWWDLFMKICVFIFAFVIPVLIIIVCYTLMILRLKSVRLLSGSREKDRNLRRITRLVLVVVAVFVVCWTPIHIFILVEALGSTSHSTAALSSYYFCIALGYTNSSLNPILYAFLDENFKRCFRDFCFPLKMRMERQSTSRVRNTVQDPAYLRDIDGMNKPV
Data set [9] addresses T4, Kappa-type opioid receptor. Format: functional.
For data set [10], the target named is T4, Kappa-type opioid receptor. Format: functional. The source holds these as a separate data set.
For data set [11], the target named is T4, Kappa-type opioid receptor. Put plainly: SAR analysis of small molecule agonists of the kappa opioid receptor via a luminescent beta-arrestin assay. [Related pubchem assays (depositor defined):AID1777, AID1786, AID1966, AID2133, AID2136, AID2348, AID2352, AID2357, AID2359, AID2370, AID2420, AID2478, AID2491, AID2492, AID2493, AID2497, AID2498, AID2500, AID449737, AID488822, AID488842]. The class given is functional.

Data set [12] concerns the target T2, Mu-type opioid receptor. Put plainly: mu opioid receptor blockers – image-based, SAR follow-up (AID 2420).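 Also: compounds added before stimulation of receptor with agonist DAMGO.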 Format: functional.
Data set [13] has as its target T3, Delta-type opioid receptor. Put plainly: HTS Image-Based Screen for Agonists of the DOR Receptor. [Related pubchem assays (depositor defined):AID1777, AID1786, AID2133]. The class given is functional.
Data set [14] has as its target T3, Delta-type opioid receptor. Put plainly: delta opioid receptor blockers – image-based, SAR follow-up (AID 2357). Format: functional.
Data set [15] deals with T4, Kappa-type opioid receptor. The experiment in a line: kappa opioid receptor blockers, image-based, SAR follow-up (AID 2348). The class given is functional.
In data set [16] the target is T3, Delta-type opioid receptor. Put plainly: DOR agonists, SAR follow-up, image-based (AID 2370). Format: functional.
Data set [17] concerns the target T2, Mu-type opioid receptor. Put plainly: mu opioid receptor activators, image-based, SAR follow-up (AID 2352). The class given is functional.
Data set [18] addresses T4, Kappa-type opioid receptor. Format: functional. The source holds these as a separate data set.
Data set [19] is described as follows: MIN6 cell viability loss – mouse insulinoma, cytotoxicity control, dose response (AID 2122).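 Also: confirmatory high-throughput counterscreen run to flag cytotoxic compounds.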 The class given is functional.
Data set [20] is described as follows: decrease of insulin promoter-GFP reporter – imaging, high-content screening, mouse beta cells (AID 1628). The class given is functional. The conditions noted are these: MIN6.
Data set [21] has as its target T5, Cytochrome P450 1A2 (Homo sapiens, UniProt P05177).
T5 sequence (P05177 whole entry): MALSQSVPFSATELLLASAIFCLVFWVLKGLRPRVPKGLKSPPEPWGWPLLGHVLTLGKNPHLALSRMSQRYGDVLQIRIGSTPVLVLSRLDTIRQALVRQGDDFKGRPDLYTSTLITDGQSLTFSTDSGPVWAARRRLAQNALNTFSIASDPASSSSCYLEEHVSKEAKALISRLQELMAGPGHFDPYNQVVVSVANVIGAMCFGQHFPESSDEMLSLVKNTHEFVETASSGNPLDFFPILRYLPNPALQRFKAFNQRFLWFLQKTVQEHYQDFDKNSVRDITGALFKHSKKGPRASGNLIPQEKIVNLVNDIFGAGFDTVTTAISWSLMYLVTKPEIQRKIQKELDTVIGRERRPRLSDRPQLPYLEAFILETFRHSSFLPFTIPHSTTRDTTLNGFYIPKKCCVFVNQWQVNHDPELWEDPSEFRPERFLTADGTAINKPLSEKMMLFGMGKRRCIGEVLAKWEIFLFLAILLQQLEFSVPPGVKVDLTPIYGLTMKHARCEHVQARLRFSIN

In data set [22] the target is Cytochrome P450 3A4 (Homo sapiens, UniProt P08684).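 Also: CYP3A4 tested as one member of a cytochrome P450 panel screen.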
Cytochrome P450 3A4, sequence (P08684 whole entry): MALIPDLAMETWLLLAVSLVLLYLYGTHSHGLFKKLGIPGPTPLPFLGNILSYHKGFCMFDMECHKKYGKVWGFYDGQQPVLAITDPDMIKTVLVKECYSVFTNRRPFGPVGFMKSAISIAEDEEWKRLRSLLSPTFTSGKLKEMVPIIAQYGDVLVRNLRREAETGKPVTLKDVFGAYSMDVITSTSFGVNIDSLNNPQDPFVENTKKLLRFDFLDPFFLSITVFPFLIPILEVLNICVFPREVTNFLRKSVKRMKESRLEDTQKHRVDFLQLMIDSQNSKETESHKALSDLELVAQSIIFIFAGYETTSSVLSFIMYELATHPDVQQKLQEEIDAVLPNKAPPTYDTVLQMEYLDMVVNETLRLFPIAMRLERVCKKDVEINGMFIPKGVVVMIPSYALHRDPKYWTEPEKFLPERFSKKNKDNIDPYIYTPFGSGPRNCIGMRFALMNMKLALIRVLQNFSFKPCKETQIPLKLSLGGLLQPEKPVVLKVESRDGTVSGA
The target of data set [23] is T5, Cytochrome P450 1A2. This is another data set of the same source.
For data set [24], the target named is Cytochrome P450 2C9 (Homo sapiens, UniProt P11712).
Cytochrome P450 2C9, sequence (P11712 whole entry): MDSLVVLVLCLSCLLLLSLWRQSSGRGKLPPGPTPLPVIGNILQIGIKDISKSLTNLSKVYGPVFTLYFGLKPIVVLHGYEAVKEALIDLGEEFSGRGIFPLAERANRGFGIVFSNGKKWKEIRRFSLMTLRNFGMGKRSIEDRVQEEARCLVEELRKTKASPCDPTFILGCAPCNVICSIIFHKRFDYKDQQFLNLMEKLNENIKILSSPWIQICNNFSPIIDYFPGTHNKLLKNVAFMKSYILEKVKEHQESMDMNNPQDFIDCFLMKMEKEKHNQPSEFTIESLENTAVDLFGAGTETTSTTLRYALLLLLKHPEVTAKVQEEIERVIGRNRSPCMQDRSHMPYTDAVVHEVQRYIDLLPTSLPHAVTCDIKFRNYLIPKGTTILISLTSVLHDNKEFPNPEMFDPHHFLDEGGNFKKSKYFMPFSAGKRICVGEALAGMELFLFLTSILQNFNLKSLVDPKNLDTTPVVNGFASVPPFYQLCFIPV

With `Cc1cccc(C(=O)NNC(=S)NC(=O)c2cccs2)c1`, the IC50 in [1] was 23.5 µM (active). In data set [2], the CC50 is > 25 µM (active). Also, the concentration giving a half-maximal response (EC50) in data set [3] is 5.96 µM (active); in [4] it was 2.47 µM (active); in data set [5] it was > 160 µM (inactive).

Take `O=C(c1ccccn1)N(Cc1cccs1)C1(C(=O)NC2CCCCC2)CCCCC1`: the EC50 was > 32 µM (inactive) in data set [6]; < 0.06 µM (active) in data set [8]; 0.103 µM in [9]; 0.116 µM (active) in [11]; > 32 µM (inactive) in data set [13]; > 32 µM (inactive) in [16]. Besides, the EC50 was > 32 µM (inactive) in [17] and less than 0.5 µM in data set [18]. Also, the IC50 was > 32 µM (inactive) in data set [7]; > 5 µM (inactive) in data set [10]; > 32 µM (inactive) in data set [12]; > 32 µM (inactive) in data set [14]; > 32 µM (inactive) in data set [15].

As for `COc1ccc2nc(Nc3nc(C)c(CCC(C)C)c(O)n3)nc(C)c2c1`, the figures for the IC50 in [19] and in [20] were 5.61 µM (active) and 1.95 µM (active), respectively.

Take `COc1ccccc1OC[C@H](O)CN1CCN(CC(=O)Nc2c(C)cccc2C)CC1`: the AC50 result in data set [21] is “inactive”.

As to `CC(NC(=O)c1ccc(N2CCCC2=O)cc1)c1ccccc1` (centres undefined), the concentration at half-maximal activity (AC50) result in data set [22] is “inconclusive”; in data set [23], 39.8 µM (inconclusive); in [24] it was 15.8 µM (inconclusive).

By IC50 is commonly meant the concentration that gives 50% inhibition. For orientation: CC50 means the concentration giving 50% cytotoxicity. As a reminder, the EC50 is the midpoint of the concentration-response curve. As usually defined, the AC50 is the concentration giving half of the maximal activity seen.
